# Measured values from ChEMBL document CHEMBL3351570, “Design and synthesis of 2-phenylnaphthalenoids as inhibitors of DNA topoisomeraseIIα and antitumor agents” (Eur J Med Chem, 2014).
# Activity calls are given as the source filed them. The calls are words filed in the database; no cut-off is given here.
# Tests used:
# [1] = biological target: T1, DNA topoisomerase (Bos taurus) (UniProt A0JN73); assay: Inhibition of calf thymus DNA topoisomerase 1 assessed as reduction in pBR322 DNA relaxation at 100 uM incubated for 30 mins by DNA gel electrophoresis
# T1 sequence (whole entry): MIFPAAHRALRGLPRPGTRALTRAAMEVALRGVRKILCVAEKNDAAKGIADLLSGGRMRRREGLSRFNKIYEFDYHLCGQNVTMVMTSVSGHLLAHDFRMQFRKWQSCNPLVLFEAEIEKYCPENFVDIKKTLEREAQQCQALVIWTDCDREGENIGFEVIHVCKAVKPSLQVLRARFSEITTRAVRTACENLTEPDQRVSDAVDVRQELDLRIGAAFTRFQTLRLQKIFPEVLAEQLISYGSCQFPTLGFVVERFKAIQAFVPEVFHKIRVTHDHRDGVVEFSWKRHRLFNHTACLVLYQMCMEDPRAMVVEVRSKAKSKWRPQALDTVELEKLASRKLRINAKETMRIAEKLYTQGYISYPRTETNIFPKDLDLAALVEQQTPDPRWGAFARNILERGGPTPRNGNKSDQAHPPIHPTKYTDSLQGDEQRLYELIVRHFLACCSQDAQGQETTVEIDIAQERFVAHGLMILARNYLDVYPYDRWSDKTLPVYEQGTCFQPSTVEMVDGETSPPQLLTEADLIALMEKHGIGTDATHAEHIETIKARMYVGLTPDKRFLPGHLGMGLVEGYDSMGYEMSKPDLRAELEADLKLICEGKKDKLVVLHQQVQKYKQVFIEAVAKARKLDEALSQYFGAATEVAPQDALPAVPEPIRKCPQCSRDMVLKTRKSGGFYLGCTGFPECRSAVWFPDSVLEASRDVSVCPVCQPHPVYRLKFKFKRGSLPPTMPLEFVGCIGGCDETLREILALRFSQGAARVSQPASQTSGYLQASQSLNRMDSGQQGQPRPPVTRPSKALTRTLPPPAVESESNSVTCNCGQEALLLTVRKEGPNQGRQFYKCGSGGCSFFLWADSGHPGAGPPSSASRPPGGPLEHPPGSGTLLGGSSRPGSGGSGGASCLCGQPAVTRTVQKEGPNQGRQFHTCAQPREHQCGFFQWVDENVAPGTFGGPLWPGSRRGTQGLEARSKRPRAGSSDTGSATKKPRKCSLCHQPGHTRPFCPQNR
# [2] = test system: A549; assay: Cytotoxicity against human A549 cells after 72 hrs by sulforhodamine B assay; format: functional, cell-based; conditions: A549, 72 h
# [3] = biological target: DNA topoisomerase 2-alpha (Homo sapiens) (UniProt P11388); assay: Inhibition of human recombinant topoisomerase 2alpha assessed as reduction in pBR322 DNA relaxation at 100 uM incubated for 30 mins by DNA gel electrophoresis
# DNA topoisomerase 2-alpha (Homo sapiens), sequence (P11388 whole entry): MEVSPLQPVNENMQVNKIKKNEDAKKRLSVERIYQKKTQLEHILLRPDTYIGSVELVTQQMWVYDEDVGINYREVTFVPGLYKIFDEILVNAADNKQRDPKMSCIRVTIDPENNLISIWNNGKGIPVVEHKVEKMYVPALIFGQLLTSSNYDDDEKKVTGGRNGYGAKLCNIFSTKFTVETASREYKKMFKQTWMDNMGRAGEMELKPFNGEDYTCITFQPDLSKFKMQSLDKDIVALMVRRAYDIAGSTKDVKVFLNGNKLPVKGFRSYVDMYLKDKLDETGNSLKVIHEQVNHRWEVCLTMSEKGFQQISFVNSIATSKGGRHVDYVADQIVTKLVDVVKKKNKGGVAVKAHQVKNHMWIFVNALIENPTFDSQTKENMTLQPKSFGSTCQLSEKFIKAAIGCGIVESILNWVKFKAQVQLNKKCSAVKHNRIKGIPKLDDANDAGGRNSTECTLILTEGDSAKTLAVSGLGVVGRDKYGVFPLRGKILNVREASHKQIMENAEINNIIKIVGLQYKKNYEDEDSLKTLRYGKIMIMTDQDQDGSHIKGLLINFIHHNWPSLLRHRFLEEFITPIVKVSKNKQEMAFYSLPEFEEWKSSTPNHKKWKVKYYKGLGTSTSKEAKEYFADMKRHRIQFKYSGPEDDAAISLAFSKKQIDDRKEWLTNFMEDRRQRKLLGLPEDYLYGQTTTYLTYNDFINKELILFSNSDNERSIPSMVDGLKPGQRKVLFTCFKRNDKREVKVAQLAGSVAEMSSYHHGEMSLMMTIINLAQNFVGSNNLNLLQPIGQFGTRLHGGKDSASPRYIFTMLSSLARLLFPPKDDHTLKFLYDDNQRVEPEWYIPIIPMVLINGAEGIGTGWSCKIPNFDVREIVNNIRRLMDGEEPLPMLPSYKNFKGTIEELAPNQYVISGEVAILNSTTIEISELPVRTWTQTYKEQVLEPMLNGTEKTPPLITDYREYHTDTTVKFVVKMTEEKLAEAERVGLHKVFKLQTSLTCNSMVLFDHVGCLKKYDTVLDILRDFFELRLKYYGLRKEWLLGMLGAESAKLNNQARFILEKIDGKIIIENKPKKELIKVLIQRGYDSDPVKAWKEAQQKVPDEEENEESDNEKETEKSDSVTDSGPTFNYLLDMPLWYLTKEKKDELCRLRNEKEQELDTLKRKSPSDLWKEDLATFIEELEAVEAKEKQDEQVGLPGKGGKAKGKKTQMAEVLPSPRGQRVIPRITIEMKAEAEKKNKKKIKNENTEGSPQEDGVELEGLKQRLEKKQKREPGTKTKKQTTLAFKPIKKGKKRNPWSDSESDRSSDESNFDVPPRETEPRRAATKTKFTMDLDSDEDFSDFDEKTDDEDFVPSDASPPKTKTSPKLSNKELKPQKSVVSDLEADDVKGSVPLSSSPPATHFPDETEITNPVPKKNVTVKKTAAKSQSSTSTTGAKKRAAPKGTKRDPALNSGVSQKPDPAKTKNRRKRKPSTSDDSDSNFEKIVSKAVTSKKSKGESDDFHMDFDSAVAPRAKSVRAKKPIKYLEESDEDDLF
# [4] = test system: MDA-MB-231; assay: Cytotoxicity against human MDA-MB-231 cells after 72 hrs by sulforhodamine B assay; format: functional, cell-based; conditions: MDA-MB-231, 72 h
# [5] = biological target: DNA topoisomerase 2-alpha (Homo sapiens) (UniProt P11388); assay: Inhibition of human recombinant topoisomerase 2alpha assessed as reduction in kDNA decatenation at 100 uM incubated for 30 mins by DNA gel electrophoresis
# [6] = test system: HeLa; assay: Cytotoxicity against human HeLa cells after 72 hrs by sulforhodamine B assay; format: functional, cell-based
# [7] = test system: Nucleic Acid; assay: Induction of DNA intercalation in Escherichia coli pBR322 DNA at 100 uM by DNA gel electrophoresis; format: nucleic-acid assay
SMILES,inhibition [1],IC50 [2],inhibition [3],IC50 [4],inhibition [5],IC50 [6],Activity [7]
CC(=O)c1cc(-c2ccc3cc(O)ccc3c2)cc([N+](=O)[O-])c1O,Active,4.2 µM,Active,1.4 µM,Active,2.1 µM,
COc1cccc2c1C(=O)c1c(O)c3c(c(O)c1C2=O)C[C@@](O)(C(=O)CO)C[C@@H]3O[C@H]1C[C@H](N)[C@H](O)[C@H](C)O1,,,,,,,Active
COC(=O)c1ccc(C)c(-c2ccc3cc(O)ccc3c2)c1,,5 µM,Active,0.5 µM,Active,1.2 µM,
COc1ccc2cc(-c3ccc(CCO)c(O)c3)ccc2c1,,> 20 µM,,92 µM,,> 20 µM,
O=Cc1ccc(O)c(-c2ccc3cc(O)ccc3c2)c1,,10.5 µM,Active,3.2 µM,Active,5 µM,
COc1cc(-c2ccc3cc(O)ccc3c2)cc(C=O)c1O,Active,1.1 µM,Active,0.5 µM,Active,1.8 µM,
CC(O)c1ccc(-c2ccc3cc(O)ccc3c2)cc1 (stereo not drawn),,19.9 µM,,7.6 µM,,3.4 µM,
COc1ccc2cc(-c3cccc(C(F)(F)F)c3)ccc2c1,,> 20 µM,,455 µM,,> 20 µM,
Oc1ccc(-c2ccc3cc(O)ccc3c2)cc1,,11.4 µM,,10.5 µM,,3.1 µM,
COc1ccc(-c2ccc3cc(O)ccc3c2)cc1OC,,20 µM,,16.8 µM,,4.8 µM,
COC(=O)c1ccc(O)c(-c2ccc3cc(O)ccc3c2)c1,,11.6 µM,Active,7.6 µM,,2.2 µM,
OCc1cccc(-c2ccc3cc(O)ccc3c2)c1,,9.1 µM,,5 µM,,3.2 µM,
COC(=O)c1ccc(O)c(-c2ccc3cc(OC)ccc3c2)c1,,> 20 µM,,36.5 µM,,> 20 µM,
COC(=O)Cc1ccc(-c2ccc3cc(OC)ccc3c2)cc1,,> 20 µM,,695 µM,,> 20 µM,
COc1ccc2cc(-c3cccc(CO)c3)ccc2c1,,> 20 µM,,19.9 µM,,20 µM,
COc1ccc2cc(-c3cc(C=O)ccc3O)ccc2c1,,14.1 µM,,25.3 µM,,> 20 µM,
COC(=O)c1ccc(-c2ccc3cc(OC)ccc3c2)cc1,,> 20 µM,,> 800 µM,,> 20 µM,
COc1ccc2cc(-c3ccc(N)c(C)c3)ccc2c1,,> 20 µM,,> 800 µM,,> 20 µM,
OCc1ccc(-c2ccc3cc(O)ccc3c2)cc1,,> 20 µM,,29.5 µM,,2.2 µM,
COC(=O)C(O)c1ccc(-c2ccc3cc(OC)ccc3c2)cc1 (stereo not drawn),,> 20 µM,,24.2 µM,,> 20 µM,
COc1ccc2cc(-c3ccc(OC)c(C=O)c3)ccc2c1,,> 20 µM,,> 800 µM,,> 20 µM,
COc1ccc2cc(-c3ccc(C(C)O)cc3)ccc2c1 (stereo not drawn),,> 20 µM,,69.8 µM,,> 20 µM,
COC(=O)c1ccc(C)c(-c2ccc3cc(OC)ccc3c2)c1,,> 20 µM,,> 800 µM,Active,20 µM,
COc1ccc2cc(-c3ccc(CC(=O)O)cc3)ccc2c1,,> 20 µM,,272 µM,,> 20 µM,
O=Cc1cc(-c2ccc3cc(O)ccc3c2)ccc1O,Active,5 µM,Active,2.4 µM,Active,2.1 µM,
